Data reported in US20240392239A1, “METHODS FOR MODULATING CELL PLURIPOTENCY AND SELF-RENEWAL PROPERTY” (Memorial Sloan-Kettering Cancer Center, priority 2021, published 2024).

Key:
[1] = test system: ASNase-expressing 143B human osteosarcoma cells; assay: [U-13C] asparagine tracing in ASNase-expressing 143B cells; type: cell-based; settings: 50 μM for 24 h (FIGS. 6E and 6F)
Description: 143B cells were plated in six-well plates; 24 h later, media was changed to DMEM supplemented with 10% dialyzed FBS, 1 mM asparagine and DMSO or 50 μM BMS-303141. After 20 h, media was changed to DMEM supplemented with 10% dialyzed FBS, 1 mM [U-^13C]asparagine and DMSO or 50 μM BMS-303141. Cells were extracted with 300 μL 80% methanol containing Valine-D8 as an internal control. 143B extracts were further processed by LCMS, described below.
Liquid chromatography-mass spectrometry.

[2] = test system: non-small cell lung cancer (NSCLC) cell lines (H2170, A549, Calu-1); assay: Isotope tracing ([U-13C] glucose or [U-13C] glutamine) of TCA cycle metabolites in NSCLC cell lines; type: cell-based, human; settings: 50 μM for 24 h
Description: (§1) C2C12 cells were maintained at sub-confluence as myoblasts unless otherwise noted. All myoblast experiments were performed in high glucose DMEM supplemented with 10% FBS and 4 mM L-glutamine. For differentiation into myotubes, C2C12 cells were grown to 100% confluence for three days and then washed with PBS and changed into differentiation medium composed of high glucose DMEM supplemented with 2% horse serum (catalog no. 26050070; Gibco), 4 mM L-glutamine and 100× insulin-transferrin-selenium-ethanolamine (ITS-X; catalog no. 51500056; Gibco) for the indicated length of time (3, 5 or 7 days). Differentiation medium was refreshed every day. For non-small cell lung cancer (NSCLC) cell line studies, H2170, A549, and Calu-1 cell lines were thawed and passaged in RPMI-1640 supplemented with 10% FBS before being transitioned to high glucose DMEM supplemented with 10% FBS and 4 mM L-glutamine for several passages prior to experiments. 143B cells were maintained in high glucose DMEM supplemented with sodium pyruvate, 10% FBS and penicillin-streptomycin. All cells routinely tested negative for Mycoplasma.
For mass spectrometric analyses in C2C12 myoblasts and NSCLC cell lines, cells were seeded in six-well plates and medium was changed 24 h later. […] 48 h prior to harvest, myoblasts were supplemented with 1 μg/mL doxycycline to induce shRNA expression. For analysis of myotubes, cells seeded in six-well plates were grown to 100% confluence for 3 days, washed with PBS and changed to differentiation medium that was refreshed every day for 7 days. On the final day of differentiation, cells were washed with PBS and changed to experimental medium described above. For analysis of C2C12 myotube genetic hairpin lines, cells were processed as described above but medium was supplemented with 1 μg/mL doxycycline for the final four days of differentiation to induce shRNA expression. ESCs and NSCLC lines treated with inhibitors were processed as described above but medium was supplemented with DMSO, 50 μM BMS-303141 (catalog no. SML0784; Sigma), 5 mM dichloroacetate (catalog no. 3447795; Sigma) or 10 μM UK-5099 (catalog no. 4186; Tocris) for 24 h prior to harvest. At harvest, metabolites were extracted with 1 mL ice-cold 80% methanol containing 2 μM deuterated 2-hydroxyglutaratc (d-2-hydroxyglutaric-2,3,3,4,4-d5 acid (d5-2HG)). […]
(§2) Gas chromatography-mass spectrometry. […] Samples were analyzed using an Agilent 7890A Gas Chromatograph coupled to an Agilent 5977C mass selective detector. […] Peaks representing compounds of interest were extracted and integrated using the MassHunter software v.B.08 (Agilent Technologies) and then normalized to both the internal standard (d5-2HG) peak area and protein content of triplicate samples as determined by bicinchoninic acid assay (Thermo Fisher Scientific). […]

[3] = test system: mouse embryonic stem cells (ESCs); assay: [U-13C] glucose tracing of TCA cycle metabolites in mouse embryonic stem cells; type: cell-based
Description: Metabolic analyses. […] For mass spectrometric analyses in C2C12 myoblasts and NSCLC cell lines, cells were seeded in six-well plates and medium was changed 24 h later. […] 48 h prior to harvest, myoblasts were supplemented with 1 μg/mL doxycycline to induce shRNA expression. For analysis of myotubes, cells seeded in six-well plates were grown to 100% confluence for 3 days, washed with PBS and changed to differentiation medium that was refreshed every day for 7 days. On the final day of differentiation, cells were washed with PBS and changed to experimental medium described above. For analysis of C2C12 myotube genetic hairpin lines, cells were processed as described above but medium was supplemented with 1 μg/mL doxycycline for the final four days of differentiation to induce shRNA expression. ESCs and NSCLC lines treated with inhibitors were processed as described above but medium was supplemented with DMSO, 50 μM BMS-303141 (catalog no. SML0784; […] Sigma) or 10 μM UK-5099 (catalog no. 4186; Tocris) for 24 h prior to harvest. […] After overnight incubation at -80° C., lysates were collected and centrifuged at 21,000 g for 20 min to remove protein. All extracts were further processed by LCMS (for analysis of NADH, lactate and pyruvate (deuterium labeling and lactate/pyruvate ratio) and succinate (deuterium labeling only) or GCMS (for all other analyses) as described below. Gas chromatography-mass spectrometry. […] Metabolites were further derivatized by adding 80 μl of N-methyl-N-(trimethylsilyl) trifluoroacetamide+1% TCMS (Thermo Fisher Scientific) and 70 μl ethyl acetate (Sigma-Aldrich) and then incubated at 37° C. for 30 min. Samples were analyzed using an Agilent 7890A Gas Chromatograph coupled to an Agilent […] mass selective detector. The gas chromatograph was operated in splitless injection mode with constant helium gas flow at 1 ml min^-1; 1 μl of derivatized metabolites was injected onto an HP-5 ms column and the gas chromatograph oven temperature ramped from 60 to 290° C. for 25 min. Peaks representing compounds of interest were extracted and integrated using the MassHunter software v.B.08 (Agilent Technologies) and then normalized to both the internal standard (d5-2HG) peak area and protein content of triplicate samples as determined by bicinchoninic acid assay (Thermo Fisher Scientific). Steady-state metabolite pool levels were derived by quantifying the following ions: d5-2HG, 354 m/z; αKG, 304 […]; citrate, 465 m/z; fumarate, 245 m/z; malate, 335 m/z; and succinate, 247 m/z. All peaks were manually inspected and verified relative to known spectra for each metabolite. Enrichment of [^13C] or [^2H] was assessed by quantifying the abundance of the following ions: aspartate, 334-346 m/z; citrate, 465-482 m/z; fumarate, 245-254 m/z; and malate, 335-347 m/z. […]

[4] = test system: Rex1::GFPd2 ESCs; assay: Exit from naïve pluripotency, Rex1::GFPd2 reporter analysis; type: cell-based, mouse; settings: 2i/LIF withdrawal for 40 h; 50 μM (FIG. 4I)
Description: 2i/LIF-cultured ESCs were seeded at least 24 h prior to being washed with PBS and changed into serum-free maintenance medium without 2i or LIF at the indicated time before harvest (12, 24 or 40 h). Unless otherwise noted, cells were adapted to serum/LIF+2i culture prior to exit from naïve pluripotency.
Rex1::GFPd2 analysis. On the day of analysis, cells were trypsinized and resuspended in FACS buffer (PBS+2% FBS+1 mM EDTA) containing 4,6-diamidino-2-phenylindole (DAPI, 1 μg/mL). […] Viable cells were those excluding DAPI. Rex1::GFPd2 expression was measured by GFP mean fluorescence intensity (MFI) and quantified using FCS Express v7.0.5 or FlowJo v10.8.0.

[5] = test system: C2C12 myoblasts; assay: [U-13C] glucose tracing of TCA cycle metabolites in C2C12 myoblasts; type: cell-based, mouse
Description: as §1, with “143B cells were maintained in high glucose DMEM supplemented with sodium pyruvate, 10% FBS and penicillin-streptomycin. All cells routinely tested negative for Mycoplasma.” left out
as §2

[6] = test system: Acly-edited ESCs; settings: 2i/LIF withdrawal for 40 h; 5 mM sodium acetate (FIG. 12F)
Description: Viability assays. Serum/LIF+2i-adapted ESCs were seeded at a density of 24,000 cells per well of a 24-well plate in triplicate or quadruplicate. 24 h later, cells were washed with PBS and changed into either fresh scrum/LIF+2i medium or medium containing a 1:1 mix of glutamine-free DMEM and Neurobasal medium including N-2 supplement, B-27 supplement, 2-mercaptoethanol and 2 mM L-glutamine for 40 h. Cells were evaluated for propidium iodide (PI) on an LSRFortessa flow cytometer using FACSDiva software v8.0 (BD Biosciences). Analysis of PI exclusion was performed with FCS Express v.7.05 or FlowJo v10.8.0.

[7] = test system: control and Acly-edited ESCs; settings: 2i/LIF withdrawal for 40 h with 5 mM sodium acetate, reseeded into 2i and LIF (FIG. 12K)
Text: Colony formation assay. […] Medium was refreshed every 3 days.

[8] = test system: control and Acly-edited ESCs; settings: labeled acetate, 5 mM; 40 h of 2i/LIF withdrawal (FIG. 12D)
Description: Fatty acid analyses. To analyze fatty acids in scrum/LIF+2i-cultured ESCs undergoing exit from pluripotency, ESCs were seeded in maintenance medium in six-well plates overnight. The next day, cells were washed with PBS and changed into medium containing a 1:1 mix of glutamine-free DMEM and Neurobasal medium including N-2 supplement, B-27 supplement, 2-mercaptoethanol and 2 mM L-glutamine. […] At harvest, lysates were collected in PBS and centrifuged at 6,800 g for 5 min to pellet cells. To isolate fatty acids, cell pellets were resuspended in 400 μl HPLC grade methanol followed by 800 μl HPLC grade chloroform and samples were vortexed for 10 min at 4° C. 300 μl HPLC grade water then added to induce phase separation. 800 μl of the bottom chloroform layer was moved to a new tube and lyophilized. Dried samples were saponified by resuspending in 1 ml of 80% methanol with 0.3 M KOH and heating at 80° C. for 1 h in a glass vial. […]
Liquid chromatography-mass spectrometry. […] Metabolite quantitation was performed using a Q Exactive HF-X Hybrid Quadrupole-Orbitrap Mass Spectrometer equipped with an Ion Max API source and H-ESI II probe, coupled to a Vanquish Flex Binary UHPLC system (Thermo Scientific). […] Metabolites were detected over mass range of 70-1050 m/z in full scan positive mode, or SIM in positive mode using a quadrupole isolation window of 0.7 m/z. […]

[9] = test system: control and Acly-edited ESCs
Description: Quantification of gene expression. RNA was isolated from six-or twelve-well plates using TRIzol (Invitrogen) according to the manufacturer's instructions and 200 ng RNA was used for complementary DNA (cDNA) synthesis using the iScript cDNA Synthesis Kit (Bio-Rad). Quantitative real-time PCR analysis was performed in technical triplicate using QuantStudio 5 or 6 Flex (Applied Biosystems) with Power SYBR Green Master Mix (Thermo Fisher Scientific). All data were generated using cDNA from 3 independent wells for each condition. Actin was used as an endogenous control for all experiments. See Supplementary Table 1 for qRT-PCR primer sequences.

[10] = test system: Acly-edited ESCs; settings: 2i/LIF withdrawal for 40 h, 5 mM sodium acetate (FIG. 12E)
Description: Western blotting. Protein lysates were extracted in 1×RIPA buffer (Cell Signaling Technology), separated by SDS-polyacrylamide gel electrophoresis and transferred to nitrocellulose membranes (Bio-Rad). For histone blots, cell pellets were flash frozen in ethanol and resuspended in Laemmli buffer for sonication. Samples were mixed with 5% BME and 0.01% bromophenol blue prior to identical separation as for protein lysates. Membranes were blocked in 3% milk in Tris-buffered saline with 0.1% Tween 20 (TBST) or 5% BSA in TBST and incubated at 4° C. with primary antibodies overnight. After TBST washes the next day, membranes were incubated with horseradish peroxidase-conjugated secondary antibodies for at least 2 h, incubated with enhanced chemiluminescence (Thermo Fisher Scientific) and imaged with an SRX-101A X-ray Film Processor (Konica Minolta). […]

[11] = test system: ESC; settings: previous reports (ref 39); cited from earlier work
[12] = [U-13C] glucose, three NSCLC cell lines (FIG. 6B)

SMILES: COc1ccc(-c2ccccc2)cc1NS(=O)(=O)c1cc(Cl)cc(Cl)c1O [BMS-303141]
- ratio of cit+2/cit+4 [1]: significantly increased
- mal+2/cit+2 ratio ([2]; [U-13C] glucose, three NSCLC cell lines (FIG. 1E)): increased
- fraction of citrate m+2 [2, 12]: only a minor effect
- proportion of malate containing two labeled carbons (malate m+2) [2, 12]: increased
- glutamine anaplerosis ([2]; [U-13C] glutamine, three NSCLC cell lines (FIG. 6C)): did not uniformly affect
- decrease in enrichment of the m+2 isotopologue of malate relative to citrate (Mal+2/Cit+2) ([3]; [U-13C] glucose, serum/LIF ESCs, 50 μM for 24 h (FIG. 2B)): mitigated
- downregulation of Rex1::GFPd2 reporter activity following 2i/LIF withdrawal [4]: almost completely prevented

SMILES: N#C/C(=C\c1cn(-c2ccccc2)c2ccccc12)C(=O)O [UK-5099]
- incorporation of glucose-derived carbons into TCA cycle metabolites ([5]; 10 μM UK-5099 (MPCi) for 24 h (FIG. 10C)): reduced
- mal+2/cit+2 ratio ([5]; 10 μM UK-5099 (MPCi) for 24 h (FIG. 10D)): repressed
- incorporation of glucose-derived carbons into TCA cycle metabolites ([3]; ESCs, 10 μM UK-5099 (MPCi) for 24 h (FIG. 10E)): reduced
- mal+2/cit+2 ratio ([3]; ESCs, 10 μM UK-5099 (MPCi) for 24 h (FIG. 10F)): repressed

SMILES: CC(=O)[O-].[Na+] [acetate, sodium acetate]
- decline in viability observed in Acly-edited clones [6]: only minimally rescued
- colony formation ability (AP-positive colonies) [7]: tended to increase
- de novo lipid synthesis (fractional labeling of palmitate) [8]: contributed
- processivity (malate m+2/citrate m+2 ratio) ([3]; S/L-cultured ESCs, 5 mM sodium acetate for 24 h (FIGS. 15A-15D)): enhances
- markers of naïve pluripotency ([9]; 2i/LIF withdrawal for 40 h, 5 mM sodium acetate (FIGS. 12I-12J)): tended to increase
- effects of ACL loss on exit from pluripotency ([9]; Acly-edited ESCs, 5 mM sodium acetate, qRT-PCR, Rex1::GFPd2 MFI and AP-positive colonies (FIGS. 12I-12K)): does not reverse
- histone acetylation [10]: restored
- ESC self-renewal [11]: promotes
